Measurements from patent US6737383B1, “Herbicidal oxadiazolidines” (priority 1999, dated 2004).

Key:
bedstraw = assay: Test B pre/postemergence bedstraw; type: in vivo, Galium aparine
How it was run: (§1)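 Test chemicals in a non-phytotoxic solvent mixture with surfactant were sprayed preemergence onto planted seeds and postemergence onto plants 2 to 18 cm tall (1- to 4-leaf stage). After twelve to sixteen days in a greenhouse, injury was visually rated against untreated controls from 0 (no effect) to 10 (complete control).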

blackgrass = assay: Test B pre/postemergence blackgrass; type: in vivo, Alopecurus myosuroides
How it was run: as §1

surinam grass = assay: Test B pre/postemergence surinam grass; type: in vivo, Brachiaria decumbens
How it was run: as §1

cocklebur = assay: Test B pre/postemergence cocklebur; type: in vivo, Xanthium strumarium
How it was run: as §1

corn = assay: Test B pre/postemergence corn; type: in vivo, Zea mays
How it was run: as §1

crabgrass = assay: Test B pre/postemergence crabgrass; type: in vivo, Digitaria sanguinalis
How it was run: as §1

giant foxtail = assay: Test B pre/postemergence giant foxtail; type: in vivo, Setaria faberii
How it was run: as §1

morningglory = assay: Test B pre/postemergence morningglory; type: in vivo, Ipomoea hederacea
How it was run: as §1

pigweed = assay: Test B pre/postemergence pigweed; type: in vivo, Amaranthus retroflexus
How it was run: as §1

rape = assay: Test B pre/postemergence rape; type: in vivo, Brassica napus
How it was run: as §1

soybean = assay: Test B pre/postemergence soybean; type: in vivo, Glycine max
How it was run: as §1

sugar beet = assay: Test B pre/postemergence sugar beet; type: in vivo, Beta vulgaris
How it was run: as §1

velvetleaf = assay: Test B pre/postemergence velvetleaf; type: in vivo, Abutilon theophrasti
How it was run: as §1

wheat = assay: Test B pre/postemergence wheat; type: in vivo, Triticum aestivum
How it was run: as §1

wild oat = assay: Test B pre/postemergence wild oat; type: in vivo, Avena fatua
How it was run: as §1

purple nutsedge = assay: Test B pre/postemergence purple nutsedge; type: in vivo, Cyperus rotundus
How it was run: as §1

[1] = Postemergence, Rate 62 g/ha, scale 0 to 10, 0 is no effect, 10 is complete control
[2] = Postemergence, Rate 125 g/ha, scale of 0 to 10 where 0 is no effect and 10 is complete control
[3] = Postemergence, Rate 500 g/ha, scale 0 (no effect) to 10 (complete control)
[4] = Preemergence, Rate 125 g/ha, scale of 0 to 10 where 0 is no effect and 10 is complete control
[5] = Preemergence, Rate 250 g/ha, scale 0 (no effect) to 10 (complete control)
[6] = Rate 62 g/ha, Preemergence, scale 0 to 10
[7] = Rate 250 g/ha, Postemergence, scale 0 to 10, 0 is no effect, 10 is complete control
[8] = Rate 500 g/ha, Preemergence, scale 0 to 10 (0 no effect, 10 complete control)

CC(C)N(C(=O)n1oc(=O)n(CCN(C)C(=O)c2ccccc2)c1=O)c1ccc(F)cc1F [Compound 762]
0: Plant response rating, Bedstraw (bedstraw; [1]) | Bedstraw plant response rating (bedstraw; [2]) | Bedstraw plant response rating (bedstraw; [3]) | Plant response rating, Bedstraw (bedstraw; [4]) | Bedstraw plant response rating (bedstraw; [5]) | Bedstraw plant response rating (bedstraw; [6]) | Bedstraw plant response rating (bedstraw; [7]) | Bedstraw plant response rating (bedstraw; [8]) | Plant response rating, Blackgrass (blackgrass; [1]) | Blackgrass plant response rating (blackgrass; [2]) | Blackgrass plant response rating (blackgrass; [3]) | Plant response rating, Blackgrass (blackgrass; [4]) | Blackgrass plant response rating (blackgrass; [6]) | Blackgrass plant response rating (blackgrass; [7]) | Plant response rating, B. signalgrass (surinam grass; [1]) | B. signalgrass plant response rating (surinam grass; [2]) | B. signalgrass plant response rating (surinam grass; Preemergence, Rate 62 g/ha, scale of 0 to 10 where 0 is no effect and 10 is complete control) | Plant response rating, B. signalgrass (surinam grass; [4]) | Plant response rating, Cocklebur (cocklebur; [1]) | Cocklebur plant response rating (cocklebur; [2]) | Cocklebur plant response rating (cocklebur; [3]) | Plant response rating, Cocklebur (cocklebur; [4]) | Cocklebur plant response rating (cocklebur; [5]) | Cocklebur plant response rating (cocklebur; [6]) | Cocklebur plant response rating (cocklebur; [7]) | Cocklebur plant response rating (cocklebur; [8]) | Plant response rating, Corn (corn; [1]) | Corn plant response rating (corn; [2]) | Plant response rating, Corn (corn; [4]) | Corn plant response rating (corn; [5]) | Corn plant response rating (corn; [6]) | Corn plant response rating (corn; [8]) | Plant response rating, Crabgrass (crabgrass; [1]) | Crabgrass plant response rating (crabgrass; [2]) | Crabgrass plant response rating (crabgrass; [8]) | Giant foxtail plant response rating (giant foxtail; [2]) | Plant response rating, Morningglory (morningglory; [1]) | Plant response rating, Morningglory (morningglory; [4]) | Morningglory plant response rating (morningglory; [5]) | Morningglory plant response rating (morningglory; [6]) | Morningglory plant response rating (morningglory; [8]) | Plant response rating, Redroot pigweed (pigweed; [1]) | Redroot pigweed plant response rating (pigweed; [2]) | Plant response rating, Rape (rape; [1]) | Rape plant response rating (rape; [3]) | Plant response rating, Rape (rape; [4]) | Rape plant response rating (rape; [5]) | Rape plant response rating (rape; [6]) | Rape plant response rating (rape; [7]) | Rape plant response rating (rape; [8]) | Plant response rating, Soybean (soybean; [4]) | Soybean plant response rating (soybean; [5]) | Soybean plant response rating (soybean; [6]) | Soybean plant response rating (soybean; [8]) | Plant response rating, Sugarbeets (sugar beet; [1]) | Plant response rating, Sugarbeets (sugar beet; [4]) | Sugarbeets plant response rating (sugar beet; [6]) | Plant response rating, Velvetleaf (velvetleaf; [1]) | Plant response rating, Velvetleaf (velvetleaf; [4]) | Velvetleaf plant response rating (velvetleaf; [5]) | Velvetleaf plant response rating (velvetleaf; [6]) | Plant response rating, Wheat (wheat; [1]) | Wheat plant response rating (wheat; [3]) | Plant response rating, Wheat (wheat; [4]) | Wheat plant response rating (wheat; [5]) | Wheat plant response rating (wheat; [6]) | Wheat plant response rating (wheat; [7]) | Wheat plant response rating (wheat; [8]) | Plant response rating, Wild oats (wild oat; [1]) | Plant response rating, Wild oats (wild oat; [4]) | Wild oats plant response rating (wild oat; [5]) | Wild oats plant response rating (wild oat; [6]) | Wild oats plant response rating (wild oat; [7]) | Wild oats plant response rating (wild oat; [8]) | Plant response rating, Nutsedge (purple nutsedge; [1]) | Nutsedge plant response rating (purple nutsedge; [2]) | Plant response rating, Nutsedge (purple nutsedge; [4]) | Nutsedge plant response rating (purple nutsedge; [5]) | Nutsedge plant response rating (purple nutsedge; [6]) | Nutsedge plant response rating (purple nutsedge; [7])
9: Blackgrass plant response rating (blackgrass; [8]) | B. signalgrass plant response rating (surinam grass; [8]) | Giant foxtail plant response rating (giant foxtail; [5]) | Giant foxtail plant response rating (giant foxtail; [8])
4: Plant response rating, Crabgrass (crabgrass; [4]) | Crabgrass plant response rating (crabgrass; [5]) | Soybean plant response rating (soybean; [3]) | Soybean plant response rating (soybean; [7]) | Sugarbeets plant response rating (sugar beet; [5]) | Sugarbeets plant response rating (sugar beet; [8])
10: Plant response rating, Giant foxtail (giant foxtail; [4])
5: Giant foxtail plant response rating (giant foxtail; [6]) | Velvetleaf plant response rating (velvetleaf; [8])
2: B. signalgrass plant response rating (surinam grass; [7]) | Corn plant response rating (corn; [3]) | Corn plant response rating (corn; [7]) | Morningglory plant response rating (morningglory; [2]) | Morningglory plant response rating (morningglory; [3]) | Morningglory plant response rating (morningglory; [7]) | Plant response rating, Redroot pigweed (pigweed; [4]) | Redroot pigweed plant response rating (pigweed; [6]) | Plant response rating, Soybean (soybean; [1]) | Wild oats plant response rating (wild oat; [3])
3: B. signalgrass plant response rating (surinam grass; Rate 500 g/ha, Postemergence, scale 0 to 10, 0 is no effect, 10 is complete control) | Crabgrass plant response rating (crabgrass; [7]) | Redroot pigweed plant response rating (pigweed; [5]) | Redroot pigweed plant response rating (pigweed; [8]) | Velvetleaf plant response rating (velvetleaf; [3]) | Velvetleaf plant response rating (velvetleaf; [7]) | Nutsedge plant response rating (purple nutsedge; [3])
8: Crabgrass plant response rating (crabgrass; [3]) | Giant foxtail plant response rating (giant foxtail; [7])
6: B. signalgrass plant response rating (surinam grass; [5]) | Redroot pigweed plant response rating (pigweed; [3]) | Redroot pigweed plant response rating (pigweed; [7]) | Sugarbeets plant response rating (sugar beet; [3]) | Sugarbeets plant response rating (sugar beet; [7]) | Nutsedge plant response rating (purple nutsedge; [8])
7: Blackgrass plant response rating (blackgrass; [5])
